# Test system: cSSSI due to gram-positive pathogens
# Assay: Phase 2 randomized double-blind study of three oritavancin dose regimens in cSSSI: clinical response at test-of-cure
# Format: in vivo, human
# Conditions: for Cure (cure and improvement), % of patients: TOC
# Method: A phase 2, multi-center, randomized, double-blind, parallel, active-comparator study in which three dose regimens of oritavancin were explored as a treatment for cSSSI due to gram-positive pathogens was conducted using: a daily dose (200 mg) administered for three to seven days, a single dose (1200 mg), and an infrequent dose (800 mg dose with option for an additional 400 mg on Day 5).
# Patients were randomized through an interactive voice response system in a 1:1:1 ratio to receive either 1) oritavancin […] daily dose: 200 mg IV daily for 3 to 7 days as determined by the investigator based on clinical criteria, 2) oritavancin single dose: 1200 mg oritavancin IV on Day 1, or; 3) oritavancin infrequent dose: 800 mg IV on Day 1 with optional 400 mg IV on Day 5 as determined by investigator based on clinical criteria. During randomization patients were stratified by disease categories of wound infection, major abscess, and cellulitis. Placebo IV (5% dextrose in water) was given to maintain the blind.
# Analyses were performed on four patient populations: intent-to-treat (ITT), modified intent-to-treat (MITT), clinically evaluable (CE) and microbiologically evaluable (ME). The ITT population included patients who were randomized to treatment and received any amount of study medication. Two patients who were potentially unblinded were excluded from the ITT population for all efficacy analyses. The MITT population included all ITT patients with a gram-positive pathogen isolated at baseline.
# The primary efficacy endpoint was the clinical response in the CE population at TOC, which occurred 20 to 28 days after study enrollment on Day 1. Clinical response was determined by the investigator as part of the end-of-therapy, TOC, and late follow-up procedures by assessing signs and symptoms including fever, pain, tenderness, erythema, induration, edema, purulent drainage, eschar, and devitalized tissue. A clinical response of cure, improvement, failure, or indeterminate was assigned at end-of-therapy and TOC by the investigator based on clinical signs and symptoms. At late follow-up, the investigator could assign the clinical response of relapse in addition to cure, improvement, or indeterminate. Only patients with a clinical response of cure or improvement at TOC were assessed for clinical response at late follow-up.
# Cure was defined as resolution of purulent drainage, pain, edema, fever, erythema, tenderness, and induration. Serous drainage or aspirate and/or granulation tissue could be present. Improvement was defined as resolution of purulent drainage and, in the case of cellulitis, cessation of fever and pain. Residual erythema, edema, pain (in the case of wound or abscess), tenderness, and/or induration could be present as could serous drainage, granulation tissue, eschar, and/or devitalized tissue. Failure included any of the following: presence of purulent drainage (or aspirate) and/or fever; the unanticipated need for abscess drainage or removal of sutures (for treatment of infection)>48 hours after initiation of study therapy; or treatment with nonstudy systemic antibiotic having activity against gram-positive pathogen(s) for the primary infection site or use of topical antibiotics at the site of primary infection 24 hours or more after initiation of study medication therapy.
# The primary efficacy endpoint was clinical response (either cure or improvement versus failure) at TOC in the CE population. The primary efficacy analyses were a comparison of the proportions of CE patients with a clinical response of cure (defined as investigator assessment of cure or improvement) in the daily dose group compared to, 1) the single dose group and 2) the infrequent dose group. Adjusted estimates for the differences in response rates and the corresponding confidence intervals (CI) were constructed using the Mantel-Haenszel method stratified by disease category.
# [1] = Clinically evaluable, cellulitis
# [2] = Clinically evaluable, major abscess
# [3] = Clinically evaluable, Mantel-Haenszel stratified by disease
# [4] = Intent to treat, Mantel-Haenszel stratified by disease
# [5] = Microbiologically evaluable, Mantel-Haenszel stratified by disease
# [6] = Modified intent-to-treat, Mantel-Haenszel stratified by disease
smiles,measurement,setting,value
"CN[C@H](CC(C)C)C(=O)N[C@H]1C(=O)N[C@@H](CC(N)=O)C(=O)N[C@H]2C(=O)N[C@H]3C(=O)N[C@H](C(=O)N[C@H](C(=O)O)c4cc(O)cc(O)c4-c4cc3ccc4O)[C@H](O[C@H]3C[C@](C)(N)[C@@H](O)[C@H](C)O3)c3ccc(c(Cl)c3)Oc3cc2cc(c3O[C@@H]2O[C@H](CO)[C@@H](O)[C@H](O)[C@H]2O[C@H]2C[C@](C)(NCc3ccc(-c4ccc(Cl)cc4)cc3)[C@@H](O)[C@H](C)O2)Oc2ccc(cc2Cl)[C@H]1O [Oritavancin, N-(4-(4-chlorophenyl)benzyl)A82846B]",Estimated Difference in cure rate 800 mg − 200 mg,[1],14.4%
same,Estimated Difference in cure rate 1200 mg − 200 mg,[1],29.2%
same,"Cure (cure and improvement), % of patients","Clinically evaluable, cellulitis, 200 mg IV daily for 3 to 7 days",58.3%
same,"Cure (cure and improvement), % of patients","Clinically evaluable, cellulitis, 800 mg IV Day 1 with optional 400 mg Day 5",72.7%
same,"Cure (cure and improvement), % of patients","Clinically evaluable, cellulitis, single dose 1200 mg IV Day 1",87.5%
same,Estimated Difference in cure rate 800 mg − 200 mg,[2],−4.8%
same,Estimated Difference in cure rate 1200 mg − 200 mg,[2],−2.3%
same,"Cure (cure and improvement), % of patients","Clinically evaluable, major abscess, 200 mg IV daily for 3 to 7 days",92.3%
same,"Cure (cure and improvement), % of patients","Clinically evaluable, major abscess, 800 mg IV Day 1 with optional 400 mg Day 5",87.5%
same,"Cure (cure and improvement), % of patients","Clinically evaluable, major abscess, single dose 1200 mg IV Day 1",90.0%
same,Estimated Difference in cure rate 800 mg − 200 mg,"Clinically evaluable, wound",6.6%
same,Estimated Difference in cure rate 1200 mg − 200 mg,"Clinically evaluable, wound",1.3%
same,"Cure (cure and improvement), % of patients","Clinically evaluable, wound, 200 mg IV daily for 3 to 7 days",65.4%
same,"Cure (cure and improvement), % of patients","Clinically evaluable, wound, 800 mg IV Day 1 with optional 400 mg Day 5",72.0%
same,"Cure (cure and improvement), % of patients","Clinically evaluable, wound, single dose 1200 mg IV Day 1",66.7%
same,Estimated Difference in cure rate 800 mg − 200 mg,[3],5.2%
same,Estimated Difference in cure rate 1200 mg − 200 mg,[3],8.6%
same,"Cure (cure and improvement), % of patients","Clinically evaluable, 200 mg IV daily for 3 to 7 days",72.4%
same,"Cure (cure and improvement), % of patients","Clinically evaluable, 800 mg IV Day 1 with optional 400 mg Day 5",77.5%
same,"Cure (cure and improvement), % of patients","Clinically evaluable, single dose 1200 mg IV Day 1",81.5%
same,Cure rate,"Clinically evaluable, infrequent dose group, 800 mg Day 1 plus optional 400 mg Day 5",77.1%
same,Cure rate,"Clinically evaluable, infrequent dose group, only 800 mg on Day 1",78.3%
same,Estimated Difference in cure rate 800 mg − 200 mg,[4],5.1%
same,Estimated Difference in cure rate 1200 mg − 200 mg,[4],8.7%
same,"Cure (cure and improvement), % of patients","Intent to treat, 200 mg IV daily for 3 to 7 days",72.4%
same,"Cure (cure and improvement), % of patients","Intent to treat, 800 mg IV Day 1 with optional 400 mg Day 5",78.2%
same,"Cure (cure and improvement), % of patients","Intent to treat, single dose 1200 mg IV Day 1",81.8%
same,Estimated Difference in cure rate 800 mg − 200 mg,[5],11.0%
same,Estimated Difference in cure rate 1200 mg − 200 mg,[5],8.5%
same,"Cure (cure and improvement), % of patients","Microbiologically evaluable, 200 mg IV daily for 3 to 7 days",69.1%
same,"Cure (cure and improvement), % of patients","Microbiologically evaluable, 800 mg IV Day 1 with optional 400 mg Day 5",81.3%
same,"Cure (cure and improvement), % of patients","Microbiologically evaluable, single dose 1200 mg IV Day 1",79.3%
same,Estimated Difference in cure rate 800 mg − 200 mg,[6],11.1%
same,Estimated Difference in cure rate 1200 mg − 200 mg,[6],10.1%
same,"Cure (cure and improvement), % of patients","Modified intent-to-treat, 200 mg IV daily for 3 to 7 days",68.8%
same,"Cure (cure and improvement), % of patients","Modified intent-to-treat, 800 mg IV Day 1 with optional 400 mg Day 5",80.6%
same,"Cure (cure and improvement), % of patients","Modified intent-to-treat, single dose 1200 mg IV Day 1",80.3%
same,Patients with cellulitis who failed having unplanned surgical procedures or interventions,daily dose group (200 mg),29%
same,Relapse in CE patients,"daily dose group, late follow-up",no patients
same,Patients with cellulitis who failed having unplanned surgical procedures or interventions,infrequent dose group (800 mg),7%
same,Relapse rate in CE patients,"infrequent dose group, late follow-up",3.7%
same,Patients with cellulitis who failed having unplanned surgical procedures or interventions,"single dose group (1200 mg), n/total",0/9
same,Relapse rate in CE patients,"single dose group, late follow-up",1.6%

# From US8420592B2, “Methods of treatment using single doses of oritavancin” (The Medicines Company, priority 2008, dated 2013)
